This note sets out measurements from US20240366589A1, “NHE3-BINDING COMPOUNDS AND METHODS FOR INHIBITING PHOSPHATE TRANSPORT” (Ardelyx, Inc., priority 2013, published 2024).

For assay [1], the target named is T1, Human NHE3 (Homo sapiens, UniProt P48764).
T1 construct: expressed in transfected cells; host or cells: Opossum kidney (OK) cells (ATCC), electroporation
T1 sequence (P48764 26-834): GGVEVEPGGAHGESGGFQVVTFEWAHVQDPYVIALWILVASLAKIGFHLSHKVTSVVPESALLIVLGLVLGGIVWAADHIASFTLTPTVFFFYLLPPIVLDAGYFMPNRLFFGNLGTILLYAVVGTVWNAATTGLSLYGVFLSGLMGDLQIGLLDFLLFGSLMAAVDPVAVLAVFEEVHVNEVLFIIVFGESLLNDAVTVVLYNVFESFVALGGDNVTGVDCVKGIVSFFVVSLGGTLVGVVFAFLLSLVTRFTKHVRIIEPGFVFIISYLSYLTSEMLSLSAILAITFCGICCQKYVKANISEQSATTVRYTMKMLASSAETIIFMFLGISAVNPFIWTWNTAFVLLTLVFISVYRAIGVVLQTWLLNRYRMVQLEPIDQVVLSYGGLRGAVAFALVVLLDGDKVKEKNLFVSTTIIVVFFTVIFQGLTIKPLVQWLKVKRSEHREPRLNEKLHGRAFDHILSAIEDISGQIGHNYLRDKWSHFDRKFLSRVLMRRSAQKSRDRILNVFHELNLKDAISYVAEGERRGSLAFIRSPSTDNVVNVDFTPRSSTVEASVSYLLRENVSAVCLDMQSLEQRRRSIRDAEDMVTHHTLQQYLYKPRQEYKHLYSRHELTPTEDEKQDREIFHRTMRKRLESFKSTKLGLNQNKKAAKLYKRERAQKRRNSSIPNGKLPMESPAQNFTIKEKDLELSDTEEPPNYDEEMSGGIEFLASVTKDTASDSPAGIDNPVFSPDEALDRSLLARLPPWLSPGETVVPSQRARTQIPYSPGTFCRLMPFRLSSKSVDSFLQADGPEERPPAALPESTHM
Briefly: Cell-based NHE3 activity under persistent conditions (60 min incubation, washout), human NHE3. Conditions: Table E5; dihydrochloride salt.

Assay [2] has as its target T2, Rat NHE3 (Rattus norvegicus, UniProt P26433).
T2 construct: expressed in transfected cells; host or cells: Opossum kidney (OK) cells (ATCC), electroporation
The experiment in a line: Cell-based NHE3 activity under prompt conditions (OK cells, BCECF pH recovery), rat NHE3. Conditions: Table E5; 001 free base, 002-005 dihydrochloride salt. Summed up: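 Read-out: initial rate of BCECF-reported intracellular pH recovery via Na+/H+ antiport, fitted to pIC50. Opossum kidney cells transfected with rat or human NHE3; NH4Cl prepulse with 5 μM BCECF-AM, 30 min RT; Na+-free choline buffer 10 min.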

Assay [3] has as its system absorption of sodium from the intestinal lumen. Briefly: Inhibition of intestinal sodium absorption: urinary sodium (uNa) 16 h after single oral dose in rats. Format: in vivo, rat. Conditions: for UNa (%): urinary Na excretion as % of vehicle. Summed up:
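Urinary sodium mass over the 16 h after one oral gavage dose, measured by cation-exchange ion chromatography, reported as percent of water-vehicle group; ANOVA plus Dunnett's post hoc test. Groups of six 8-week-old Sprague-Dawley rats, housed individually in metabolic cages post-dose, fed and watered freely.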

T2 sequence (P26433 29-831): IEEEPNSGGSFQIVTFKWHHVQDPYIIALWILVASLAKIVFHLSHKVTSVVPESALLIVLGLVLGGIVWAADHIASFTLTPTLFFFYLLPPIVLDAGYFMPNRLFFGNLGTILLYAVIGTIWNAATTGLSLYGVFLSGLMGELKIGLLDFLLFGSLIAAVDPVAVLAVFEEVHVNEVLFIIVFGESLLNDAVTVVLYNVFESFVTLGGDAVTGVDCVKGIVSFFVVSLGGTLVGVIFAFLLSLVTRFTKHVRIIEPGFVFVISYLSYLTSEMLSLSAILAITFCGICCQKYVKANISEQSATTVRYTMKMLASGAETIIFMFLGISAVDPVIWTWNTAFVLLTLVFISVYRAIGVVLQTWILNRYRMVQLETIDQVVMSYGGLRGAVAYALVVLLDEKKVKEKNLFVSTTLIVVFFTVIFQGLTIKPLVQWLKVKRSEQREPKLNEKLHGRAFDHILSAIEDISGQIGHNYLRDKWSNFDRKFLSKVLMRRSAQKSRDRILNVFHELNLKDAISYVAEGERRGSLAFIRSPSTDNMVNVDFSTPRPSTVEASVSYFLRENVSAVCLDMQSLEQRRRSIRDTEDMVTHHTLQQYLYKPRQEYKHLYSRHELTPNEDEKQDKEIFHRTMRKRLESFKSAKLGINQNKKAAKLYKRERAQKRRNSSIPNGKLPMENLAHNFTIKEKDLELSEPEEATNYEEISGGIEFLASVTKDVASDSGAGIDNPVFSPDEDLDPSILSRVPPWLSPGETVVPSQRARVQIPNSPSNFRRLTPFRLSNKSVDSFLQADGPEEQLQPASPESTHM

Consider `CN1Cc2c(Cl)cc(Cl)cc2[C@@H](c2cccc(S(=O)(=O)NCCOCCOCCNC(=O)NCCCCNC(=O)NCCOCCOCCNS(=O)(=O)c3cccc([C@H]4CN(C)Cc5c(Cl)cc(Cl)cc54)c3)c2)C1` [Cpd 004], for which the “Human NHE3 pIC50 Persistent” value in assay [1] is reported as 5.6. In addition, the “Rat NHE3 pIC50 Prompt” value in assay [2] is reported as 7.3. In addition, in assay [3] (in words), the “effect on urinary Na (UNa)” value is listed as “no significant effect”. The “UNa (%)” value in assay [3] (single oral dose 10 mg/kg) is reported as 68 @ 10 mg/kg %.
For `CN1Cc2c(Cl)cc(Cl)cc2[C@H](c2cccc(S(=O)(=O)NCCOCCOCCNC(=O)NCCCCNC(=O)NCCOCCOCCNS(=O)(=O)c3cccc([C@@H]4CN(C)Cc5c(Cl)cc(Cl)cc54)c3)c2)C1` [Cpd 002], the “Human NHE3 pIC50 Persistent” value in assay [1] was determined as 8.2. The “Rat NHE3 pIC50 Prompt” value in assay [2] worked out at 8. For the same compound, in assay [3] (single oral dose 1 mg/kg), the “UNa (%)” value was 11 @ 1 mg/kg %.
